Laboratory results reported in publication PMC12775434, “Ultra-large virtual screening unveils potent agonists of the neuromodulatory orphan receptor GPR139” (Nature Communications, 2025).
Where “and” joins values, the source holds several entries; their conditions need not be identical. Equal entries are not always repeated. Where two headings read alike, the source gives them in different places.

Experiments:
GPR139 [1] = target: T1, GPR139 (Homo sapiens, UniProt Q6DWJ6); assay: Ca2+ mobilization assay, antagonist mode (EC80 800 nM Lundbeck Cmp 1a after 20 min preincubation), GPR139-CHOk1; assay type: cell-based; details: individual replicates (Supplementary Figure 4)
T1 sequence (Q6DWJ6 1-353): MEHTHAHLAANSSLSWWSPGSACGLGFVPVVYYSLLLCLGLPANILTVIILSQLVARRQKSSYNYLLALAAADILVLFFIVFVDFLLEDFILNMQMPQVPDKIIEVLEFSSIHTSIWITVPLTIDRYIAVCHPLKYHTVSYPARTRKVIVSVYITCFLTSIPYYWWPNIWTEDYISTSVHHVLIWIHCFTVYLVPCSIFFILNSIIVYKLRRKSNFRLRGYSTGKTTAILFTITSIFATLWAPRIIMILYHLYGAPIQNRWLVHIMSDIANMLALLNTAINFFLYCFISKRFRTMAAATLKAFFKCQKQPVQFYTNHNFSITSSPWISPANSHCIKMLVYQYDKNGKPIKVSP
How it was run: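 Fluo-4-loaded GPR139-CHOk1 cells in HEPES-buffered HBSS (pH 7.4, 2.5 mM probenecid) given test compounds at 10 µM, then after 20 min challenged with 800 nM Lundbeck Cmp 1a (EC80). Calcium fluorescence read at 37 °C, 485/525 nm.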

GPR139 [2] = target: T1, GPR139; assay: Inositol monophosphate (IP1) accumulation assay, GPR139-CHOk1; assay type: cell-based; details: for Emax: normalized to Lundbeck Cmp 1a
Procedure: Primary screening and pharmacological characterization of compounds were performed using a CHO-K1 cell line that stably expresses human GPR139 (GPR139-CHOk1). The GPR139-CHOk1 cell line was kindly provided by H. Lundbeck A/S, Denmark[24]. GPR139-CHOk1 cells were grown in Ham’s F-12 Kaighn’s Modification Medium (ThermoFisher #21127030) supplemented with 10% dialyzed fetal bovine serum (US origin, ThermoFisher #26400044), 100 units/mL Penicillin-Streptomycin (ThermoFisher #15140122), and 1 mg/mL Geneticin (ThermoFisher #11811031). […] M1R-CHOk1 cells were purchased from The Missouri S&T cDNA Resource Center (#CEM100TN00). M1R-CHOk1 cells were grown in Ham’s F12 Medium (ThermoFisher #21765029) supplemented with 10% fetal bovine serum (Brazilian origin, ThermoFisher #10270106), 100 units/mL Penicillin-Streptomycin, and 0.25 mg/mL Geneticin. HEK293A cells transiently transfected with GPR139 were used for additional pharmacological assessment of signaling pathways activated by GPR139. HEK239A cells were generously provided by Dr. Asuka Inoue, Tohoku University, Japan. HEK293A cells were grown in Dulbecco’s Modified Eagle Medium (ThermoFisher #31966047) supplemented with 10% dialyzed fetal bovine serum and 100 units/mL Penicillin-Streptomycin. Cell lines were maintained at 37 °C in humidified incubator equilibrated with 5% CO2.
HTRF IP-One Gq kit (Cisbio #62IPAPEC) was used to detect the accumulation of inositol monophosphate (IP1) as described in the work by Shehata et al.[26]. GPR139-CHOk1 cells were dissociated and resuspended in HEPES buffer. 50,000 cells in 5 µL and 5 µL test compounds diluted from DMSO stocks (final DMSO concentration of maximally 0.3%) in HEPES buffer supplemented with 40 mM LiCl were mixed in each well of white 384-well OptiPlate (PerkinElmer #6007290). The cells were incubated for 1 h at 37 °C. Then, 10 µL detection reagent composed of 2.5% Eu3 + -anti-IP1 antibody and 2.5% IP1-d2 diluted in lysis buffer was added, and the cells were incubated for 1 h at room temperature before measurements. Measurements were performed on EnVision Multimode Plate Reader (PerkinElmer) using excitation light of 340 nm and emission light of 615 nm and 665 nm. The time resolved-fluorescence resonance energy transfer (TR-FRET) 665 nm/615 nm ratio, which is inversely proportional to the IP1 accumulation, was used to determine the IP1 response.
Pharmacological data and statistical analyses were performed in GraphPad Prism v9–10 (Graphpad Software Inc., San Diego, CA), which are also specifically described in the figure and table legends. The functional assay responses were normalized to buffer (0%) and Lundbeck Cmp 1a or JNJ-63533054 (100%), for Ca^2+ and IP1 experiments in the GPR139-CHOk1 stable cell line or Ca^2+, G protein activation, and arrestin-3 recruitment experiments in the HEK293A cells transiently transfected with GPR139, respectively. Data are from at least three independent experiments, unless stated otherwise. Concentration-response curves were fitted applying non-linear regression using the log (agonist) versus response model with variable slope. ANOVA was applied for comparing results and determining statistical significance. Comparison of responses to the reference was performed using one-way ANOVA with Dunnett’s multiple comparisons test at significance threshold of p < 0.05. Comparison of responses across assays and ligands was performed using two-way ANOVA with Tukey’s multiple comparisons test at a significance threshold of p < 0.05.

[3] = Supplementary Table 2, mean ± SEM, read-out: pEC50 IP1 (converted)
[4] = Supplementary Table 2, read-out: Emax (%) IP1
[5] = log [compound] M -4.5, individual replicates
[6] = log [compound] M -5.0, individual replicates
[7] = log [compound] M -5.5, individual replicates
[8] = log [compound] M -6.0, individual replicates
[9] = log [compound] M -6.5, individual replicates
[10] = log [compound] M -7.0, individual replicates
[11] = log [compound] M -7.5, individual replicates
[12] = log [compound] M -8.0, individual replicates

Compound	Ca2+ signal (% of Cmp 1a) (GPR139 [1])	EC50 (GPR139 [2]; [3]) [nM]	Emax (GPR139 [2]; [4]) [%]	IP1 response (% of Cmp 1a) (GPR139 [2]; [5])	IP1 response (% of Cmp 1a) (GPR139 [2]; [6])	IP1 response (% of Cmp 1a) (GPR139 [2]; [7])	IP1 response (% of Cmp 1a) (GPR139 [2]; [8])	IP1 response (% of Cmp 1a) (GPR139 [2]; [9])	IP1 response (% of Cmp 1a) (GPR139 [2]; [10])	IP1 response (% of Cmp 1a) (GPR139 [2]; [11])	IP1 response (% of Cmp 1a) (GPR139 [2]; [12])	also measured
COc1ccccc1-c1nc(CC(=O)NC(C)c2ccccc2)no1 (centres unmarked) [Compound 1.2, COC1=C(C2=NC(CC(NC(C3=CC=CC=C3)C)=O)=NO2)C=CC=C1]	2 % of Cmp 1a and 4 % of Cmp 1a and 3.33 % of Cmp 1a	501	100 ± 9	124 % of Cmp 1a and 88 % of Cmp 1a and 75 % of Cmp 1a and 93 % of Cmp 1a	116 % of Cmp 1a and 87 % of Cmp 1a and 73 % of Cmp 1a and 117 % of Cmp 1a	100 % of Cmp 1a and 64 % of Cmp 1a and 57 % of Cmp 1a and 96 % of Cmp 1a	93 % of Cmp 1a and 47 % of Cmp 1a (2×) and 64 % of Cmp 1a	57 % of Cmp 1a and 45 % of Cmp 1a and 31 % of Cmp 1a and 51 % of Cmp 1a	15 % of Cmp 1a and 18 % of Cmp 1a and 6 % of Cmp 1a and 14 % of Cmp 1a	15 % of Cmp 1a and 11 % of Cmp 1a and -2 % of Cmp 1a and 7.38 % of Cmp 1a	2 % of Cmp 1a and -5.58 % of Cmp 1a and -11 % of Cmp 1a and 6.5 % of Cmp 1a	–
Cc1nocc1-c1nc(CC(=O)NC(C)c2ccccc2)no1 (centres unmarked) [Compound 1.5, CC(C1=CC=CC=C1)NC(CC2=NOC(C3=CON=C3C)=N2)=O]	3.33 % of Cmp 1a and -5.33 % of Cmp 1a and -2.33 % of Cmp 1a	501	102 ± 15	120 % of Cmp 1a and 99 % of Cmp 1a and 50 % of Cmp 1a and 106 % of Cmp 1a	127 % of Cmp 1a and 79 % of Cmp 1a and 71 % of Cmp 1a and 109 % of Cmp 1a	103 % of Cmp 1a and 63 % of Cmp 1a and 65 % of Cmp 1a and 87 % of Cmp 1a	75 % of Cmp 1a and 61 % of Cmp 1a and 56 % of Cmp 1a and 68 % of Cmp 1a	59 % of Cmp 1a and 41 % of Cmp 1a and 29 % of Cmp 1a and 43 % of Cmp 1a	26 % of Cmp 1a and 25 % of Cmp 1a and 8 % of Cmp 1a and 18 % of Cmp 1a	22 % of Cmp 1a and 7 % of Cmp 1a and 0.699 % of Cmp 1a and 13 % of Cmp 1a	12 % of Cmp 1a and -12 % of Cmp 1a and -8.56 % of Cmp 1a and 4.3 % of Cmp 1a	–
CC(NC(=O)CNC(=O)c1cccc(Cl)c1)c1ccccc1 (centres unmarked) [JNJ-63533054, reference compound]	–	–	–	–	–	–	–	–	–	–	–	Emax (GPR139 [2]; Supplementary Table 4, read-out: Emax (%), IP1 accumulation): 157 ± 16%; EC50 (GPR139 [2]; Supplementary Table 4, read-out: pEC50, IP1 accumulation (converted)): 200 nM; IP1 response (% of Cmp 1a) (GPR139 [2]; log [Compound] M -4.5, replicate experiments): 132 % of Cmp 1a and 117 % of Cmp 1a and 179 % of Cmp 1a and 200 % of Cmp 1a; IP1 response (% of Cmp 1a) (GPR139 [2]; log [Compound] M -5.0, replicate experiments): 149 % of Cmp 1a and 120 % of Cmp 1a and 161 % of Cmp 1a and 172 % of Cmp 1a; IP1 response (% of Cmp 1a) (GPR139 [2]; log [Compound] M -5.5, replicate experiments): 112 % of Cmp 1a and 93 % of Cmp 1a and 135 % of Cmp 1a and 165 % of Cmp 1a; IP1 response (% of Cmp 1a) (GPR139 [2]; log [Compound] M -6.0, replicate experiments): 129 % of Cmp 1a and 86 % of Cmp 1a and 138 % of Cmp 1a and 168 % of Cmp 1a; IP1 response (% of Cmp 1a) (GPR139 [2]; log [Compound] M -6.5, replicate experiments): 93 % of Cmp 1a (2×) and 74 % of Cmp 1a and 97 % of Cmp 1a; IP1 response (% of Cmp 1a) (GPR139 [2]; log [Compound] M -7.0, replicate experiments): 56 % of Cmp 1a and 47 % of Cmp 1a and 72 % of Cmp 1a and 84 % of Cmp 1a; IP1 response (% of Cmp 1a) (GPR139 [2]; log [Compound] M -7.5, replicate experiments): 40 % of Cmp 1a and 23 % of Cmp 1a and 36 % of Cmp 1a and 37 % of Cmp 1a; IP1 response (% of Cmp 1a) (GPR139 [2]; log [Compound] M -8.0, replicate experiments): 24 % of Cmp 1a and 9 % of Cmp 1a and 8 % of Cmp 1a and 2 % of Cmp 1a
